Results published in the supplement of paper PMC10307832.

What follows are cell lines tested with NCC(=O)Nc1ccc(-n2nc(C(F)(F)F)cc2-c2ccc3c(ccc4ccccc43)c2)cc1 + CC(=O)Nc1cccc(-n2c(=O)n(C3CC3)c(=O)c3c(Nc4ccc(I)cc4F)n(C)c(=O)c(C)c32)c1 [Trametinib] (partner 0.02 µM) (assay: relative viability (nuclei count vs DMSO), 5 days (fraction); higher = more cells survive). Conditions: first compound 2 µM.
Outline: (§1)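 Relative viability divides the nuclei count in treated wells by that in vehicle wells. Lung cancer cell lines were seeded in 1536-well plates, dosed by pin tool the next day, and fixed and stained after 5 days in one step with final 0.05% Triton X-100, 1% formaldehyde and 1 ug/ml Hoechst. Dosing was a single drug or a fixed anchor-drug dose plus five library-drug doses (not always all listed) in √10 steps, and values are medians of duplicate plates imaged at 4×.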

Cell Line	relative viability
NCI-H2009	0.301
A-427	0.783
NCI-H441	0.555
NCI-H661	0.588
NCI-H1734	0.7
NCI-H460	0.18
NCI-H2347	0.357
SK-LU-1	0.576
NCI-H1395	1.09
201T	0.696
NCI-H1915	0.322
HCC-827	0.521
LXF-289	0.68
NCI-H23	0.352
NCI-H647	0.49
CAL-12T	0.362
NCI-H1651	0.851
EPLC-272H	0.303

Cell Line	relative viability
NCI-H2228	0.553
NCI-H1792	0.436
NCI-H1355	0.433
NCI-H3122	0.261
NCI-H1437	0.683
NCI-H1755	0.71
NCI-H2023	0.358
HCC-15	0.363
NCI-H1793	0.396
PC-14	0.608
EKVX	0.369
LC-2-ad	0.935
NCI-H1944	0.403
NCI-H1975	0.284
RERF-LC-KJ	0.848
NCI-H358	0.15
NCI-H650	0.994

These cell lines were tested with NCC(=O)Nc1ccc(-n2nc(C(F)(F)F)cc2-c2ccc3c(ccc4ccccc43)c2)cc1 + CCNC(=O)c1noc(-c2cc(C(C)C)c(O)cc2O)c1-c1ccc(CN2CCOCC2)cc1 [Luminespib] (partner 0.01 µM) in the same assay as above. Conditions: first compound 0.02 µM.
Outline: as §1

Cell Line	relative viability
NCI-H2009	1.1
A-427	0.886
NCI-H441	0.334
NCI-H661	0.932
NCI-H1734	0.201
NCI-H460	0.032
NCI-H2347	0.427
SK-LU-1	0.208
NCI-H1395	0.615
201T	1.1
NCI-H1915	0.817
HCC-827	0.679
LXF-289	0.686
NCI-H647	0.26
CAL-12T	0.54
NCI-H1651	0.8
EPLC-272H	0.265

Cell Line	relative viability
NCI-H2228	0.144
NCI-H1792	0.337
NCI-H1355	0.668
NCI-H3122	0.0686
NCI-H1437	1.11
NCI-H1755	0.449
NCI-H2023	0.681
HCC-15	0.332
NCI-H1793	0.398
PC-14	0.146
EKVX	0.957
LC-2-ad	1.01
NCI-H1944	0.667
NCI-H1975	0.125
RERF-LC-KJ	1.32
NCI-H358	0.316
NCI-H650	0.725

Same assay, conditions: first compound 0.06325 µM

Cell Line	relative viability
NCI-H2009	0.932
A-427	0.849
NCI-H441	0.391
NCI-H661	0.907
NCI-H1734	0.213
NCI-H460	0.0402
NCI-H2347	0.634
SK-LU-1	0.182
NCI-H1395	0.78
201T	1.07
NCI-H1915	0.756
HCC-827	0.852
LXF-289	0.67
NCI-H23	0.217
NCI-H647	0.151
CAL-12T	0.22
NCI-H1651	0.965
EPLC-272H	0.264

Cell Line	relative viability
NCI-H2228	0.16
NCI-H1792	0.583
NCI-H1355	0.765
NCI-H3122	0.0831
NCI-H1437	0.991
NCI-H1755	0.621
NCI-H2023	0.906
HCC-15	0.306
NCI-H1793	0.155
PC-14	0.154
EKVX	0.923
LC-2-ad	1.05
NCI-H1944	0.71
NCI-H1975	0.29
RERF-LC-KJ	1.29
NCI-H358	0.54
NCI-H650	0.878

Same assay, conditions: first compound 0.2 µM

Cell Line	relative viability
NCI-H2009	1.09
A-427	1.06
NCI-H441	0.347
NCI-H661	0.899
NCI-H1734	0.181
NCI-H460	0.0319
NCI-H2347	0.7
SK-LU-1	0.193
NCI-H1395	0.678
201T	1.11
NCI-H1915	0.779
HCC-827	0.59
LXF-289	0.633
NCI-H23	0.216
NCI-H647	0.146
CAL-12T	0.531
NCI-H1651	0.872
EPLC-272H	0.367

Cell Line	relative viability
NCI-H2228	0.177
NCI-H1792	0.552
NCI-H1355	0.72
NCI-H3122	0.127
NCI-H1437	1.13
NCI-H1755	0.305
NCI-H2023	0.972
HCC-15	0.302
NCI-H1793	0.18
PC-14	0.19
EKVX	0.894
LC-2-ad	1.12
NCI-H1944	0.787
NCI-H1975	0.236
RERF-LC-KJ	1.27
NCI-H358	0.37
NCI-H650	0.867

Same assay, conditions: first compound 0.6325 µM

Cell Line	relative viability
NCI-H2009	1.03
A-427	0.864
NCI-H441	0.296
NCI-H661	0.925
NCI-H1734	0.24
NCI-H460	0.0282
NCI-H2347	0.686
SK-LU-1	0.206
NCI-H1395	0.655
201T	1.03
NCI-H1915	0.815
HCC-827	0.731
LXF-289	0.637
NCI-H23	0.222
NCI-H647	0.181
CAL-12T	0.536
NCI-H1651	0.81
EPLC-272H	0.186

Cell Line	relative viability
NCI-H2228	0.154
NCI-H1792	0.585
NCI-H1355	0.791
NCI-H3122	0.113
NCI-H1437	1.12
NCI-H1755	0.426
NCI-H2023	0.739
HCC-15	0.365
NCI-H1793	0.192
PC-14	0.218
EKVX	0.842
LC-2-ad	1.11
NCI-H1944	0.715
NCI-H1975	0.278
RERF-LC-KJ	1.19
NCI-H358	0.323
NCI-H650	0.734

Same assay, conditions: first compound 2 µM

Cell Line	relative viability
NCI-H2009	1.03
A-427	0.996
NCI-H441	0.397
NCI-H661	0.906
NCI-H1734	0.187
NCI-H460	0.0345
NCI-H2347	0.7
SK-LU-1	0.18
NCI-H1395	0.617
201T	1.06
NCI-H1915	0.769
HCC-827	0.684
LXF-289	0.702
NCI-H23	0.234
NCI-H647	0.252
CAL-12T	0.463
NCI-H1651	0.861
EPLC-272H	0.35

Cell Line	relative viability
NCI-H2228	0.16
NCI-H1792	0.484
NCI-H1355	0.752
NCI-H3122	0.116
NCI-H1437	1.05
NCI-H1755	0.541
NCI-H2023	0.758
HCC-15	0.335
NCI-H1793	0.213
PC-14	0.182
EKVX	0.909
LC-2-ad	1.14
NCI-H1944	0.75
NCI-H1975	0.247
RERF-LC-KJ	1.1
NCI-H358	0.259
NCI-H650	0.973

What follows are cell lines tested with C1CSC2=C(C(=O)N1)SC3=C2C=C(C=C3)O [kb NB 142-70] + Cc1nc(NC(=O)N2CCC[C@H]2C(N)=O)sc1-c1ccnc(C(C)(C)C(F)(F)F)c1 [Alpelisib] (partner 2 µM) in the same assay as above. Conditions: first compound 0.1 µM.
Outline: as §1

Cell Line	relative viability
NCI-H2009	1.04
A-427	1.01
NCI-H441	0.92
NCI-H661	0.812
NCI-H1734	0.659
NCI-H460	0.521
NCI-H2347	0.963
SK-LU-1	0.961
NCI-H1395	1.29
201T	1.01
NCI-H1915	1.07
HCC-827	0.868
LXF-289	1.03
NCI-H23	0.553
NCI-H647	1.1
CAL-12T	1.22
NCI-H1651	0.938
EPLC-272H	0.906

Cell Line	relative viability
NCI-H2228	0.7
NCI-H1792	0.778
NCI-H1355	0.924
NCI-H3122	0.828
NCI-H1437	1.01
NCI-H1755	0.968
NCI-H2023	0.619
HCC-15	0.908
NCI-H1793	0.589
PC-14	0.902
EKVX	0.854
LC-2-ad	0.858
NCI-H1944	0.874
NCI-H1975	0.665
RERF-LC-KJ	0.778
NCI-H358	0.885
NCI-H650	1.13

Same assay, conditions: first compound 1 µM

Cell Line	relative viability
NCI-H2009	1.2
A-427	1.23
NCI-H441	0.62
NCI-H661	0.526
NCI-H1734	0.607
NCI-H460	0.435
NCI-H2347	1.09
SK-LU-1	0.873
NCI-H1395	1.15
201T	1.02
NCI-H1915	1.08
HCC-827	0.928
LXF-289	1.02
NCI-H23	0.586
NCI-H647	1.43
CAL-12T	1.5
NCI-H1651	0.934
EPLC-272H	0.899

Cell Line	relative viability
NCI-H2228	0.729
NCI-H1792	0.732
NCI-H1355	0.86
NCI-H3122	0.7
NCI-H1437	0.999
NCI-H1755	0.915
NCI-H2023	0.602
HCC-15	0.787
NCI-H1793	0.711
PC-14	0.969
EKVX	0.849
LC-2-ad	0.958
NCI-H1944	0.817
NCI-H1975	0.604
RERF-LC-KJ	0.827
NCI-H358	0.578
NCI-H650	1.19

Same assay, conditions: first compound 3.162 µM

Cell Line	relative viability
NCI-H2009	0.72
A-427	1.11
NCI-H441	0.484
NCI-H661	0.613
NCI-H1734	0.46
NCI-H460	0.244
NCI-H2347	1.01
SK-LU-1	0.307
NCI-H1395	0.66
201T	1
NCI-H1915	0.648
HCC-827	0.851
LXF-289	0.917
NCI-H23	0.315
NCI-H647	0.698
CAL-12T	0.644
NCI-H1651	0.364
EPLC-272H	0.509

Cell Line	relative viability
NCI-H2228	0.494
NCI-H1792	0.891
NCI-H1355	0.822
NCI-H3122	0.442
NCI-H1437	0.875
NCI-H1755	0.929
NCI-H2023	0.531
HCC-15	0.626
NCI-H1793	0.636
PC-14	0.99
EKVX	0.96
LC-2-ad	0.813
NCI-H1944	0.853
NCI-H1975	0.344
RERF-LC-KJ	0.706
NCI-H358	0.131
NCI-H650	0.942
